Laboratory results as given in patent US11209437B2, “Fluorescent probe and preparation method and use thereof” (Fluorescence Diagnosis (shanghai) Biotech Company Ltd., priority 2016, dated 2021).

Columns and labels:
[1] = Fluorescence of free probe prior to binding to a protein tag; type: physicochemical
Procedure: (§1) Probes were mixed with corresponding protein tags to obtain mixed samples, in which the final probe concentration was 5 μM, and the final protein tag concentration was 10 μM. The mixed samples were incubated 37° C. for 1 hr, fluorescence spectrophotometer was used to detect the change in fluorescence intensity, and the results are shown in Table 1.
(§2) From the quantum yield of probe bound to protein tag, after reacting with the protein tags, the probes of the Examples could be detected to have significant signal enhancement in corresponding excitation transmission channels, the fluorescence activation multiple reached several hundreds to a thousand or more, and the brightness was high, which illustrates that after the probes of the Examples are bound to the protein tags, fluorescence of the probes can be activated, and the probes have good fluorescent molecular switching properties. In contrast, though the fluorescence of the reference probes could also be activated, the quantum yield of activated fluorescence was very low, and the brightness was very poor. In particular, in view of comparison results between probe 98 and reference probe 99, probe 101 and reference probe 102, probe 103 and reference probe 104, probe 105 and reference probe 106, probe 107 and reference probe 108, probe 109 and reference probe 110, probe 111 and reference probe 112, probe 114 and reference probe 115, probe 117 and reference probe 118, probe 120 and reference probe 121 in Table 1, for the same fluorescent dye, when the ligand is connected to the electron donor part of the fluorescent dye, the fluorescence activation brightness of the probe is much higher than the reference probe in which ligand is connected to the electron acceptor part of the fluorescent dye.

[2] = Viscosity responsiveness: fluorescence emission spectra of probes in glycerol and methanol; type: physicochemical; conditions: for Emission wavelength: excited at maximum excitation wavelength of each probe; for Fluorescence ratio in glycerol to methanol: probe 1×10^−5 M
Procedure: Probes 1 to 98, 101, 103, 105, 107, 109, 111, 114, 117, and 120, and the reference probes 99, 100, 102, 104, 106, 108, 110, 112, 113, 115, 116, 118, 119, 121, BG-CCVJ and BG-Gly-CCVJ were dissolved in dimethyl sulfoxide, respectively, to prepare mother liquors having a concentration of 1×10^−2 M, to each of which glycerol and methanol were added and uniformly mixed, to prepare solutions finally having a concentration of 1×10^−5 M. Depending on the probes, fluorescence emission spectra of the probes were detected successively with the maximum excitation wavelength of each probe under the same conditions, and the results were shown in Table 1.
That is, these probes are sensitive to viscosity changes and have viscosity responsiveness.

SNAP protein tags = biological target: T1, SNAP protein tags (Homo sapiens, UniProt P16455, A127T/A154D/C150Q/C62A/E30R/G131K/G132T/G153L/K125A/K32I/L33F/M134L/N157G/Q115S/Q116H/R128A/R135S/S151G/S152D/S159E); experiment: Fluorescence activation of probe after incubation with corresponding protein tag (SNAP); type: biochemical; conditions: probe 5 μM, protein tag 10 μM, 37° C., 1 hr
T1 sequence (P16455 1-182 E30R/K32I/L33F/C62A/Q115S/Q116H/K125A/A127T/R128A/G131K/G132T/M134L/R135S/C150Q/S151G/S152D/G153L/A154D/N157G/S159E): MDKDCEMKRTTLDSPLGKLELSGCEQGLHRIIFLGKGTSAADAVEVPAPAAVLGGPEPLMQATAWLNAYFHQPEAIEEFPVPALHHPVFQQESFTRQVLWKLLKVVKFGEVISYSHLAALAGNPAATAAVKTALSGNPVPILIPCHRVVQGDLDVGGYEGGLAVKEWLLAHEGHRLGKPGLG
Procedure: as §1, §2

Structure (SMILES)	Quantum yield of free probe [1]	Emission wavelength [2] [nm]	Fluorescence ratio in glycerol to methanol [2]	Fluorescence activation multiple (SNAP protein tags)	Quantum yield of probe bound to protein tag (SNAP protein tags)
CC(C)(C)OC(=O)/C(C#N)=C/c1ccc(N(CCOC(=O)NCCCS(=O)(=O)O)CCOC(=O)NCc2ccc(COc3nc(N)nc4[nH]cnc34)cc2)cc1 [probe 11]	0.0013	481	422	270	0.36
COCCOCCOCCOCCOCCN(CCOC(=O)NCc1ccc(COc2nc(N)nc3[nH]cnc23)cc1)c1ccc(/C=C(\C#N)C(=O)OC(C)(C)C)cc1 [probe 12]	0.0012	482	405	351	0.41
CN(CCC(=O)NCc1ccc(COc2nc(N)nc3[nH]cnc23)cc1)c1ccc(/C=C(\C#N)C(=O)OC(C)(C)C)cc1 [probe 13]	<0.001	483	391	315	0.29
CN1C(=O)/C(=C/c2ccc(N(C)CCOC(=O)NCc3ccc(COc4nc(N)nc5[nH]cnc45)cc3)cc2)N=C1c1ccccc1 [probe 14]	<0.001	531	560	771	0.18
CN1C(=O)/C(=C/c2ccc(N(C)CCOC(=O)NCc3ccc(COc4cc(Cl)nc(N)n4)cc3)cc2)N=C1/C=C/c1ccccc1 [probe 16]	<0.001	580	311	359	0.21
CN(CCOC(=O)NCc1ccc(COc2nc(N)nc3[nH]cnc23)cc1)c1ccc(C2=C(C#N)C(=C(C#N)C#N)OC2(C)C)cc1 [probe 18]	0.0017	535	301	265	0.45
CN(CCOC(=O)NCc1ccc(COc2cc(Cl)nc(N)n2)cc1)c1ccc(C2=C(C#N)C(=C(C#N)C#N)OC2(C)C)cc1 [probe 19]	0.0012	535	299	361	0.45
CN(CCOC(=O)NCc1ccc(COc2nc(N)nc3[nH]cnc23)cc1)c1cc2sc(/C=C(\C#N)c3nc4ccccc4o3)cc2s1 [probe 22]	<0.001	590	1821	610	0.36
CN(CCOC(=O)NCc1ccc(COc2nc(N)nc3[nH]cnc23)cc1)c1cc2sc(/C=C(\C#N)c3nc4ccccc4s3)cc2s1 [probe 23]	<0.001	610	1235	712	0.42
CN(CCOC(=O)NCc1ccc(COc2cc(Cl)nc(N)n2)cc1)c1cc2sc(/C=C(\C#N)C(=O)OC(C)(C)C)cc2s1 [probe 24]	<0.001	555	1681	590	0.48
CN(CCOC(=O)NCc1ccc(COc2cc(Cl)nc(N)n2)cc1)c1cc2sc(/C=C(\C#N)c3nc4ccccc4o3)cc2s1 [probe 25]	<0.001	590	1621	670	0.36
CN(CCOC(=O)NCc1ccc(COc2cc(Cl)nc(N)n2)cc1)c1cc2sc(/C=C(\C#N)c3nc4ccccc4s3)cc2s1 [probe 26]	<0.001	610	1123	910	0.42
CN(CCOC(=O)NCc1ccc(COc2nc(N)nc3[nH]cnc23)cc1)c1ccc2cc(/C=C(\C#N)c3nc4ccccc4o3)sc2c1 [probe 31]	<0.001	607	1135	421	0.41

Second part, the molecule after the results:

Quantum yield of free probe [1]	Emission wavelength [2] [nm]	Fluorescence ratio in glycerol to methanol [2]	Fluorescence activation multiple (SNAP protein tags)	Quantum yield of probe bound to protein tag (SNAP protein tags)	Structure (SMILES)
<0.001	609	997	638	0.46	CN(CCOC(=O)NCc1ccc(COc2nc(N)nc3[nH]cnc23)cc1)c1ccc2cc(/C=C(\C#N)c3nc4ccccc4s3)sc2c1 [probe 32]
<0.001	570	1781	957	0.55	CN(CCOC(=O)NCc1ccc(COc2cc(Cl)nc(N)n2)cc1)c1ccc2cc(/C=C(\C#N)C(=O)OC(C)(C)C)sc2c1 [probe 33]
0.001	570	1258	488	0.50	CC(C)(C)OC(=O)/C(C#N)=C/c1cc2ccc(N(CCC#N)CCOC(=O)NCc3ccc(COc4nc(N)nc5[nH]cnc45)cc3)cc2s1 [probe 36]
0.0012	570	1135	469	0.56	CC(C)(C)OC(=O)/C(C#N)=C/c1cc2ccc(N(CCO)CCOC(=O)NCc3ccc(COc4nc(N)nc5[nH]cnc45)cc3)cc2s1 [probe 37]
0.0016	570	892	335	0.55	CC(C)(C)OC(=O)/C(C#N)=C/c1cc2ccc(N(CCOC(=O)NCCCS(=O)(=O)O)CCOC(=O)NCc3ccc(COc4nc(N)nc5[nH]cnc45)cc3)cc2s1 [probe 39]
0.001	570	759	421	0.41	CN(CCOC(=O)NCc1ccc(COc2nc(N)nc3[nH]cnc23)cc1)c1ccc2cc(/C=C(\C#N)C(=O)OC(C)(C)C)sc2c1 [probe 40]
0.0015	575	101	212	0.31	CC1=N/C(=C/c2cc3ccc(N(C)CCOC(=O)NCc4ccc(COc5nc(N)nc6[nH]cnc56)cc4)cc3s2)C(=O)N1C [probe 41]
0.0013	600	178	298	0.38	CN1C(=O)/C(=C\c2cc3ccc(N(C)CCOC(=O)NCc4ccc(COc5nc(N)nc6[nH]cnc56)cc4)cc3s2)N=C1c1ccccc1 [probe 42]
<0.001	602	1028	982	0.37	CN(CCOC(=O)NCc1ccc(COc2nc(N)nc3[nH]cnc23)cc1)c1ccc2nc(/C=C(\C#N)C(=O)OC(C)(C)C)oc2c1 [probe 43]
<0.001	603	1459	1586	0.37	CN(CCOC(=O)NCc1ccc(COc2cc(Cl)nc(N)n2)cc1)c1ccc2nc(/C=C(\C#N)C(=O)OC(C)(C)C)oc2c1 [probe 44]
